Data from ChEMBL document CHEMBL5625178, “The topoisomerase II β -kinase associated with HIV-1 is a potential target for pyridine-bischalcones' anti-HIV-1 activity” (Eur J Med Chem, 2023).
Activity calls are given as the source filed them. The calls are words filed in the database; no cut-off is given here.

Legend:
[1] = (§1) Inhibition of HIV-1 topoisomerase II beta kinase phosphorylation in the presence of […][gamma 32P]-ATP incubated for 30 mins by liquid scintillation counter analysis; set-up: species or system Human immunodeficiency virus 1
[2] = Cytotoxicity against human SUP-T1 cells assessed as reduction in cell viability incubated for 16 hrs by MTT assay; assay type: toxicity, cell-based
[3] = tested on: Human immunodeficiency virus 1; assay: Antiviral activity against HIV1 infected in human SUP-T1 cells assessed as inhibition of viral replication incubated for 5 hrs by sandwich ELISA method; assay type: functional, organism-based
[4] = tested on: Human immunodeficiency virus 1; assay: Antiviral activity against HIV1 93IN101 infected in human SUP-T1 cells assessed as suppression of proviral DNA synthesis at IC50 concentration incubated for 5 hrs by PCR analysis; assay type: functional, organism-based
[5] = tested on: SUP-T1; assay: Inhibition of Topoisomerase II beta serine phosphorylation in human SUP-T1 cells infected with HIV1 93IN101 by Western blot analysis; assay type: cell-based; details: dose 5-50 nM
[6] = tested on: Human immunodeficiency virus 1; assay: as §1; details: dose 0.25-600 pM

Structure (SMILES) | IC50 [1] [µM] | CC50 at 16 h [2] [µM] | Activity [3] | Activity [4] | inhibition [5] | inhibition [6]
C[n+]1ccc(/C=C2\CCC/C(=C\c3cc[n+](C)cc3)C2=O)cc1 | 0.00015 | 2.02 | Dose-Dependent Effect | Active | Dose-Dependent Effect | 
C[n+]1cccc(/C=C2\CCC/C(=C\c3ccc[n+](C)c3)C2=O)c1 | 0.0001 | 2.12 | Dose-Dependent Effect | Active | Dose-Dependent Effect | 
C[n+]1ccccc1/C=C1\CCC/C(=C\c2cccc[n+]2C)C1=O | 0.00014 | 2.04 | Dose-Dependent Effect | Active | Dose-Dependent Effect | 
O=C1/C(=C/c2ccncc2)CCC/C1=C\c1ccncc1 | 0.00044 | 0.82 | Dose-Dependent Effect |  |  | Dose-Dependent Effect
Cc1cn([C@H]2C[C@H](N=[N+]=[N-])[C@@H](CO)O2)c(=O)[nH]c1=O |  |  | Dose-Dependent Effect |  |  | 
O=C1/C(=C/c2cccnc2)CCC/C1=C\c1cccnc1 | 0.00032 | 0.96 | Dose-Dependent Effect |  |  | 
c1ccc(-c2cccnc2)cc1 |  | 1.5 |  |  |  | Dose-Dependent Effect
O=C1/C(=C/c2ccccn2)CCC/C1=C\c1ccccn1 | 0.00055 | 0.92 | Dose-Dependent Effect |  |  | 
